For orientation: IC50 means the concentration that gives 50% inhibition. A word on the Ki: it is a dissociation constant, usually derived from enzyme kinetics or from competition with a known ligand.

Starred links: 1 amine or outer side, 2 acyl side, 3 side chain; linkers in the order of their positions; H or OH if unused. Non-standard residues stand in square brackets, D forms with d. Residues, ends and D or L forms follow the SMILES beside them. AMPB = O=C(c1ccc(N=Nc2ccc(CN[*:1])cc2)cc1)[*:2]

From paper PMC5618341, “Controlled inhibition of methyltransferases using photoswitchable peptidomimetics: towards an epigenetic regulation of leukemia” (Chemical Science, 2017) come the findings set out here.

This test has as its target T1, WDR5Δ23 (Homo sapiens, UniProt P61964).
T1 construct: His6-SUMO (N, cleaved yes); made in house; host or cells: E. coli DH5α (so in the source)
As to the kind of experiment: Fluorescence polarization (FP)-based competitive binding assay. Particulars: non-irradiated peptide (trans isomer), 72 nM WDR5Δ23, 20 nM tracer 22; for IC50: read-out: IC50, non-irradiated (trans); for Ki: read-out: Ki, non-irradiation (trans).

`CC(C)C[C@H](NC(=O)[C@H](Cc1c[nH]cn1)NC(=O)[C@@H](NC(=O)[C@H](CCC(=O)O)NC(=O)[C@H](C)NC(=O)[C@H](CCCNC(=N)N)NC(=O)c1ccc(N=Nc2ccc(CNC(=O)[C@@H](N)CO)cc2)cc1)C(C)C)C(=O)N[C@@H](CCCNC(=N)N)C(=O)N[C@@H](CCCCN)C(=O)N[C@@H](CO)C(N)=O` [peptide 5, H2N-SXRAEVHLRKS-CONH2] (H-S[AMPB]RAEVHLRKS-NH2): the IC50 came to 3910 ± 830 nM and the Ki is 66.8 ± 10 nM.
On the same counts, the results for `CC(C)C[C@H](NC(=O)[C@H](Cc1c[nH]cn1)NC(=O)c1ccc(N=Nc2ccc(CNC(=O)[C@H](CCC(=O)O)NC(=O)[C@H](C)NC(=O)[C@H](CCCNC(=N)N)NC(=O)[C@H](C)NC(=O)[C@@H](N)CO)cc2)cc1)C(=O)N[C@@H](CCCNC(=N)N)C(=O)N[C@@H](CCCCN)C(=O)N[C@@H](CO)C(N)=O` [peptide 8, H2N-SARAEXHLRKS-CONH2] (H-SARAE[AMPB]HLRKS-NH2) are 210 ± 35 nM and 2.4 ± 0.6 nM.
For `CC(C)C[C@H](NC(=O)c1ccc(N=Nc2ccc(CNC(=O)[C@@H](NC(=O)[C@H](CCC(=O)O)NC(=O)[C@H](C)NC(=O)[C@H](CCCNC(=N)N)NC(=O)[C@H](C)NC(=O)[C@@H](N)CO)C(C)C)cc2)cc1)C(=O)N[C@@H](CCCNC(=N)N)C(=O)N[C@@H](CCCCN)C(=O)N[C@@H](CO)C(N)=O` [peptide 9, H2N-SARAEVXLRKS-CONH2] (H-SARAEV[AMPB]LRKS-NH2), in that order: 2530 ± 390 nM and 40.4 ± 3.9 nM.
On to `CC(C)[C@H](NC(=O)[C@H](CCC(=O)O)NC(=O)[C@H](C)NC(=O)[C@H](CCCNC(=N)N)NC(=O)[C@H](C)NC(=O)[C@@H](N)CO)C(=O)N[C@@H](Cc1c[nH]cn1)C(=O)NCc1ccc(N=Nc2ccc(C(=O)N[C@@H](CCCNC(=N)N)C(=O)N[C@@H](CCCCN)C(=O)N[C@@H](CO)C(N)=O)cc2)cc1` [peptide 10, H2N-SARAEVHXRKS-CONH2] (H-SARAEVH[AMPB]RKS-NH2), for which the IC50 was found to be 1150 ± 120 nM and the Ki is 17 ± 1.9 nM.
On the same counts, the results for `CC(C)C[C@H](NC(=O)[C@H](Cc1c[nH]cn1)NC(=O)[C@@H](NC(=O)[C@H](CCC(=O)O)NC(=O)[C@H](C)NC(=O)[C@H](CCCNC(=N)N)NC(=O)[C@H](C)NC(=O)[C@@H](N)CO)C(C)C)C(=O)NCc1ccc(N=Nc2ccc(C(=O)N[C@@H](CCCCN)C(=O)N[C@@H](CO)C(N)=O)cc2)cc1` [peptide 11, H2N-SARAEVHLXKS-CONH2] (H-SARAEVHL[AMPB]KS-NH2) are 2140 ± 280 nM and 32.8 ± 4.5 nM.
For `CC(C)C[C@H](NC(=O)[C@H](Cc1c[nH]cn1)NC(=O)[C@@H](NC(=O)[C@H](CCC(=O)O)NC(=O)[C@H](C)NC(=O)[C@H](CCCNC(=N)N)NC(=O)[C@H](C)NC(=O)[C@@H](N)CO)C(C)C)C(=O)N[C@@H](CCCNC(=N)N)C(=O)NCc1ccc(N=Nc2ccc(C(=O)N[C@@H](CO)C(N)=O)cc2)cc1` [peptide 12, H2N-SARAEVHLRXS-CONH2] (H-SARAEVHLR[AMPB]S-NH2), in that order: 1320 ± 110 nM and 19.8 ± 1.7 nM.
As for `CC(C)C[C@H](NC(=O)[C@H](Cc1c[nH]cn1)NC(=O)c1ccc(N=Nc2ccc(CNC(=O)[C@H](C)NC(=O)[C@H](CCCNC(=N)N)NC(=O)[C@H](C)NC(=O)[C@@H](N)CO)cc2)cc1)C(=O)N[C@@H](CCCNC(=N)N)C(=O)N[C@@H](CCCCN)C(=O)N[C@@H](CO)C(N)=O` [peptide 13, H2N-SARAXHLRKS-CONH2] (H-SARA[AMPB]HLRKS-NH2), the IC50 was found to be 293 ± 50 nM and the Ki worked out at 3.63 ± 0.8 nM.
